“Also recorded” adds a separate entry of the source.
Columns and labels:
[1] = molecular target: T1, Flavobacterium heparinum 6-O-sulfatase (ORF B), recombinant, NH2-terminal truncation lacking signal sequence, SEQ ID NO: 2 (Pedobacter heparinus, UniProt C6Y1N4); assay: Inhibition of 6-O-sulfatase activity (sulfate, phosphate, chelators); assay type: biochemical
T1 construct: E. coli BL21(DE3), N-terminal 6xHis removed by thrombin
Method: Results are normalized to 0.0 M NaCl added (which is shown as 100%). 6-O-sulfatase (●); N-sulfamidase (◯). […] Results for 6-O-sulfatase are represented by a solid line; results for N-sulfamidase are represented by a dashed line. […] Log scale for inhibitor concentration, [I]. […] Relative activities (% desulfation) were measured over a pH range of 4-8 using three buffers: sodium acetate (●), MES (◯) and MOPS (▴).
Open bars (no divalent metals added); black bars (1 mM EDTA added); light gray bars (1 mM divalent metal); stippled gray bars (5 mM divalent metal). […] Enzyme kinetics were measured for the 6-O-sulfatase (FIG. 8C) and N-sulfamidase (FIG. 8D) as described in Materials and Methods at varying concentrations of Ca^+2 or in the presence of 1 mM EDTA. Substrate saturation plots were fitted to pseudo first-order Michaelis-Menten kinetics by non-linear regression analyses. 0.5 mM Ca^+2 (●), 1 mM Ca^+2 (◯), 5 mM Ca^+2 (▪), 1 mM EDTA (Δ).
Indirect measurement of enzyme activity was also made using a fluorimetrically-based plate assay in which the prerequisite desulfation of the appropriate glucopyranoside 1→4 methlybelliferone substrate by either the 6-O-sulfatase or N-sulfamidase was coupled to the glucosidase-mediated hydrolysis of the stereo-specific 1→4 glycosidic linkage between the pyranose ring and the adjoining fluorophore. Release of the free fluorophore (4-MU) was monitored spectroscopically as described above for the arylsulfatase assay using 4-MU sulfate. The two sulfatase assays differed in the choice of substrate in accordance to their specificity as well as the glucosidase added during the second, rate-limiting step. […] Reaction conditions were optimized to satisfy three related criteria: 1) linear readout of fluorescent signal which is directly proportional to sulfatase activity; 2) quantitative release of 4-MU by glucosidase activity under every biochemical condition examined and; 3) negligible fluorescent quenching of the free chromophore. […]

[2] = molecular target: T2, Flavobacterium heparinum N-sulfamidase (ORF C), recombinant, NH2-terminal truncation lacking signal sequence, SEQ ID NO: 4 (Pedobacter heparinus, UniProt C6Y1N3); assay: Inhibition of N-sulfamidase activity (sulfate, phosphate, chelators); assay type: biochemical
T2 construct: E. coli BL21(DE3), N-terminal 6xHis removed by thrombin
T2 sequence (C6Y1N3 entry or part of it): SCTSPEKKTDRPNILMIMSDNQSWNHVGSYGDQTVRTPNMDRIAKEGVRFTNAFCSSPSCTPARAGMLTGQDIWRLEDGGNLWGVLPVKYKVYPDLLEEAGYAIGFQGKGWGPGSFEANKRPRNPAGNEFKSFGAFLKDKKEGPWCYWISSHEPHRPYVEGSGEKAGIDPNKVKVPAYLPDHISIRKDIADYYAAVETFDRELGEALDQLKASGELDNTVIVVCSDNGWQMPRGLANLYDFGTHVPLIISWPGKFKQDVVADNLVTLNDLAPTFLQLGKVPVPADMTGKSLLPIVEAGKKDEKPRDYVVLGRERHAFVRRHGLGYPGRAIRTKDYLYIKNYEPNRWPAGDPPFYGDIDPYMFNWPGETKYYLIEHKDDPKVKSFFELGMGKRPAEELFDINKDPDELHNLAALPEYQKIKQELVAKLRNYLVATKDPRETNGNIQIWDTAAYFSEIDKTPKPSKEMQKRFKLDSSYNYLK
Method: Results are normalized to 0.0 M NaCl added (which is shown as 100%). […] Relative activities (% desulfation) were measured over a pH range of 4-8 using three buffers: sodium acetate (●), MES (◯) and MOPS (▴).
Enzyme kinetics were measured for the 6-O-sulfatase (FIG. 8C) and N-sulfamidase (FIG. 8D) as described in Materials and Methods at varying concentrations of Ca^+2 or in the presence of 1 mM EDTA. Substrate saturation plots were fitted to pseudo first-order Michaelis-Menten kinetics by non-linear regression analyses.
Indirect measurement of enzyme activity was also made using a fluorimetrically-based plate assay in which the prerequisite desulfation of the appropriate glucopyranoside 1→4 methlybelliferone substrate by either the 6-O-sulfatase or N-sulfamidase was coupled to the glucosidase-mediated hydrolysis of the stereo-specific 1→4 glycosidic linkage between the pyranose ring and the adjoining fluorophore. Release of the free fluorophore (4-MU) was monitored spectroscopically as described above for the arylsulfatase assay using 4-MU sulfate. The two sulfatase assays differed in the choice of substrate in accordance to their specificity as well as the glucosidase added during the second, rate-limiting step. For the 6-O-sulfatase, the hydrolysis of the substrate 4-MU-β-D-GlcNAc,6S at the 6-OH position was coupled to β-glucosidase purified from sweet almonds (MP Biomedicals, Solon, Ohio, Catalog No. 195197). Likewise, N-sulfamidase hydrolysis of 4-MU-α-D-GlcNS at the 2-amino position was coupled to α-glucosidase (MP Biomedicals, Catalog No. 153487). […] The presumption of the first (sulfatase) activity being the rate-limiting step was established experimentally. Reaction conditions were optimized to satisfy three related criteria: 1) linear readout of fluorescent signal which is directly proportional to sulfatase activity; 2) quantitative release of 4-MU by glucosidase activity under every biochemical condition examined and; 3) negligible fluorescent quenching of the free chromophore.
Coupled N-sulfamidase assay was generally described for the 6-O-sulfatase, but with the following modifications: 4-MU-GlcNS as substrate, 50 mM sodium acetate at pH 6.0 (instead of 5.5) and 1 μM enzyme. For the second enzyme step, 5 units of α-glucosidase were added. Enzyme incubation was carried out for 22 hours at 37° C. […] All other reaction conditions were as described for the coupled 6-O-sulfatase/β-glucosidase assay.
Having identified chromogenic substrates for each recombinant sulfatase, these substrates were also used to further develop a fluorescence-based plate assay as the means to define the optimal in vitro reaction conditions for each sulfatase.

T1 sequence (C6Y1N4 entry or part of it): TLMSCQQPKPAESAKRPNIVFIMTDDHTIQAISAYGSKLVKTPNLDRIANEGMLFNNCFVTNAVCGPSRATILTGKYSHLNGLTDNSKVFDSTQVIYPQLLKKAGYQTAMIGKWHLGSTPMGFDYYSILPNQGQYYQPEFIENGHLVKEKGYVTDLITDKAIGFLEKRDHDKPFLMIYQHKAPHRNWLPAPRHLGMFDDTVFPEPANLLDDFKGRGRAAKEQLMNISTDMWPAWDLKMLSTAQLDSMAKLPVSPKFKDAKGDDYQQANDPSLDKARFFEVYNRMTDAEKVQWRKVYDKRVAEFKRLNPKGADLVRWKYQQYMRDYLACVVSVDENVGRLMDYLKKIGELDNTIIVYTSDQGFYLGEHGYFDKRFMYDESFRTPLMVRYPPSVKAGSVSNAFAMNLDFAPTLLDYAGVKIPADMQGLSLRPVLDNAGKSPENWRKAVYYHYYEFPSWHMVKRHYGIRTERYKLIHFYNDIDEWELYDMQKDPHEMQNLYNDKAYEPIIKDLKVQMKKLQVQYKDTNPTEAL

## O=C(O)CN(CCOCCOCCN(CC(=O)O)CC(=O)O)CC(=O)O [EGTA]
[1]; EGTA, same conditions as N-sulfamidase (5 mM Ca^2+)
  effect on 6-O-sulfatase specific activity: no appreciable effect

## O=C(O)CN(CCN(CC(=O)O)CC(=O)O)CC(=O)O [EDTA, ethylenediaminetetracetic acid]
[2]; 1 mM EDTA
  N-sulfamidase activity in the presence of EDTA: lack of activity
[1]; 1 mM EDTA
  6-O-sulfatase activity in the presence of EDTA: somewhat active

## O=S(=O)(O)O [sulfate]
[2]
  inhibition of N-sulfamidase by sulfate or phosphate: largely uninhibited; also recorded: not apparently inhibited
[1]; normalized to 0 sulfate or phosphate added, read-out: concentration for 50% inhibition of 6-O-sulfatase activity
  IC50: ~20 mM

## phosphate
[2]
  inhibition of N-sulfamidase by sulfate or phosphate: largely uninhibited; also recorded: not apparently inhibited

— patent US8846363B2, “Compositions of and methods of using sulfatases from Flavobacterium heparinum” (priority 2007, dated 2014)
